Source: ChEMBL document CHEMBL5506011, “Discovery of novel and selective farnesoid X receptor antagonists through structure-based virtual screening, preliminary structure-activity relationship study, and biological evaluation” (Eur J Med Chem, 2024)

Experiments:
Format in all cases: organism-based
[1] = Toxicity in male C57BL/6 mouse assessed as aspartate transaminase (AST) level in serum at 20 to 40 mg/kg, po measured after 4 days; conditions: in vivo, 96 h, dose 20-40 mg/kg, time 4 day
[2] = Toxicity in male C57BL/6 mouse assessed as total bile acid level in serum at 20 mg/kg, ip measured after 4 days; conditions: in vivo, 96 h, time 4 day
[3] = Toxicity in male C57BL/6 mouse assessed as aspartate transaminase (AST) level in serum at 20 mg/kg, ip measured after 4 days; conditions: in vivo, 96 h, time 4 day
[4] = Toxicity in male C57BL/6 mouse assessed as alanine transaminase (ALT) level in serum at 20 mg/kg, ip measured after 4 days; conditions: in vivo, 96 h, time 4 day
[5] = Toxicity in male C57BL/6 mouse assessed as total bile acid level in serum at 20 to 40 mg/kg, po measured after 4 days; conditions: in vivo, 96 h, dose 20-40 mg/kg, time 4 day

Measured: Activity

Cc1ccc(C)c(OCCCC(C)(C)C(=O)NCC(=O)c2ccc(O)cc2)c1
Non-Toxic: all assays above
